Laboratory results published in PubChem BioAssay (NCI).
“And” between values parts separate entries of the source, which are not always exact repeats. Equal entries are not always repeated.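 Briefly, cells in 96-well plates were exposed to five compound concentrations for 48 h, and endpoints were estimated by linear interpolation. At the GI50, growth is halved. TGI: concentration producing complete growth inhibition.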

Tested on: MDA-MB-468 breast
Assay: DTP human tumour cell line panel, 48 h

Compared with `CN(C)c1ccc(/C=C\c2cccc[n+]2C)cc1`, `CN(C)c1ccc2c(c1)Sc1cc(N(C)C)ccc1N2C(=O)c1ccccc1` is 45-fold higher in GI50: 0.988 µM for the first, 44.7 µM for the second.

`Cc1ccc(-c2cc(-c3ccc(C)cc3)nc(NCCNc3ccnc4cc(Cl)ccc34)n2)cc1` and `Cc1cc(NCc2cc(Nc3ccnc4cc(Cl)ccc34)ccc2F)nc(N2CCCC2)n1` are within 1.5-fold of each other in GI50: 1.44 µM for the first, 1.33 µM for the second.

`C=CC(=O)Nc1cccc(C)c1Nc1cc(-c2cccnc2Cc2c(C)c(OC)cc(OC)c2C)ncn1` and `COc1ccc(C2CC(c3cc(OC)c(OC)c(OC)c3)=NN2C(C)=O)cc1OCC(=O)Nc1nc2ccc(C(F)(F)F)cc2s1` (centres undefined) are within 1.5-fold of each other in GI50: 5.85 µM for the first, 6.12 µM for the second.

Compared with `CCN=C1C=CC(=C(c2ccc(N)cc2)c2ccc(N(CC)CC)c(C)c2)C=C1`, `CCCn1cnc2c(c1=N)C(c1ccc(Cl)cc1)c1sc3c(C)cccc3c1O2` (centres undefined) is 1.9-fold higher in GI50: 0.193 µM for the first, 0.361 µM for the second.

`O=C(c1ccccc1)C(CN1CCOCC1)c1ccccc1` (centres undefined) and `O=C(/C(=C/c1ccccc1)CN1CCCCC1)c1ccccc1` are within 1.5-fold of each other in GI50: 0.382 µM for the first, 0.531 µM for the second.

`CC1=C(CCC(C)N(C)Cc2ccc(OCCCN3CCCC3)cc2)C(C)(C)CCC1` (centres undefined) and `CC(C)(C)c1ccc(OCCCCCCN2CCNCC2)cc1` are within 1.5-fold of each other in GI50: 2.15 µM for the first, 2.38 µM for the second.

Compared with `Cc1ccc(NC(=O)/C=C/c2ccccc2)c(C(N)=O)c1`, `N/C(=N\N=C\c1ccc(-c2ccccc2)cc1)N[N+](=O)[O-]` is 3.4-fold lower in GI50: 3.17 µM for the first, 0.935 µM for the second.

Compared with `C=CC(=O)N1CCN(c2ccc3cccc(NC(=O)c4cnc(C)cn4)c3n2)CC1`, `CCN(C(=O)N1CCN(c2cc3c(cc2F)c(=O)c(C(=O)O)cn3C2CC2)CC1)c1nc(-c2ccc(C)cc2)cs1` is 1.6-fold lower in GI50: 1.83 µM for the first, 1.13 µM for the second.

First: O=c1[nH]c2ccccc2nc1-c1c[nH]c2ccccc12
Second: N#C/C(=C\c1c(-c2ccccc2)[nH]c2ccccc12)S(=O)(=O)c1ccccc1
The GI50 of the first is higher: greater than 100 µM for the first, 1.86 µM for the second.

First: COC(=O)C(Cc1ccccc1)NC(=O)NC(=O)NC(=O)CI (centres undefined)
Second: COc1ccc(-c2cc(-c3ccccc3)nc(SCCCC(=O)NO)n2)cc1
The GI50 of the first is 3.6-fold higher: 4.1 µM for the first, 1.14 µM for the second.

First: COc1cccc(NC(=O)c2sc3nc4c(cc3c2N)CN(Cc2ccccc2)CC4)c1
Second: CN1CCN(Cc2ccc(NC(=O)c3cncc(C#Cc4cnc(N)c5ccncc45)c3)cc2C(F)(F)F)CC1
The GI50 of the first is 2.1-fold higher: 2.6 µM for the first, 1.26 µM for the second.

Going from `COc1ccc(-c2n[nH]nc2-c2cc(OC)c3c(c2OC)OCO3)cc1` to `CCC1C(c2cc(OC)c(OC)c(OC)c2)c2cc3c(cc2OC1N1CCCC1)OCO3` (centres undefined), the GI50 rises from 0.386 µM to 4.23 µM (11-fold).

Compared with `CCCn1c(C)nc2c1C(=O)c1ccccc1C2=O`, `Cn1c2c(cc(S(=O)(=O)c3ccccc3)c1=O)CCc1c-2cnn1-c1ccc(Cl)cc1` is 7.8-fold lower in GI50: 18.7 µM for the first, 2.39 µM for the second.

First: O=[N+]([O-])c1cccc(-c2nc3sccn3c2-c2ccnc(NCCCNS(=O)(=O)c3cccc(F)c3)n2)c1
Second: C/C(=N\Nc1ccc2ccccc2n1)c1ccccn1
The GI50 of the first is 8.6-fold higher: 0.829 µM for the first, 0.0962 µM for the second.

`Clc1cc(Cl)c(OCC#CI)cc1Cl` and `CCN1CCC(CCOC)(CN2c3ccccc3Sc3ccc(Cl)cc32)C1` (centres undefined) are within 1.5-fold of each other in GI50: 2.36 µM for the first, 1.66 µM for the second.

Compared with `CC(C)CC(CC1=CCC2CC1C2(C)C)C1=C(O)C(C)(C)C(=O)C(C)(C)C1=O` (centres undefined), `C=C1CC[C@@H]2[C@](C)(COC(C)=O)[C@@H](O)CC[C@@]2(C)[C@@H]1COc1ccc2ccc(=O)oc2c1` is higher in GI50: 0.268 µM for the first, greater than 100 µM for the second.

`CN(C)CCCN1c2ccccc2CCc2ccc(Cl)cc21` and `CC(CN1CCN(CCOCCO)CC1)CN1c2ccccc2Sc2ccc(Cl)cc21` (centres undefined) are within 1.5-fold of each other in GI50: 1.42 µM for the first, 1.69 µM for the second.

First: O=C1c2c(c3c4ccccc4[nH]c3c3ccc4ccccc4c23)C(=O)N1CCN1CCCCC1
Second: C=CC(=O)N(C)[C@H]1C[C@H]2OC(C)(C1OC)n1c3ccccc3c3c4c(c5c6ccccc6n2c5c31)C(=O)NC4 (some centres undefined)
The GI50 of the first is 6.7-fold higher: 0.38 µM for the first, 0.0571 µM for the second.

First: C[C@]12CC[C@H]3[C@@H](CCC4=CC(=O)CC[C@@H]43)[C@@H]1CC[C@@H]2OC(=O)CCc1ccccc1
Second: C[C@]12CCC3[C@@H](CC[C@@H]4c5nonc5CC[C@]34C)C1CCC(=O)N2 (some centres undefined)
The GI50 of the first is higher: greater than 61.4 µM for the first, 60.2 µM for the second.

First: Cc1cc2c3ccc(C)[n+](C)c3ccc2n1C
Second: Cc1cc(N/N=C/c2nc(-c3ccc(Br)cc3)oc2C)c2cc(Cl)ccc2n1
The GI50 of the first is lower: 1.12 µM for the first, greater than 100 µM for the second.

First: Nc1ncnc2[nH]ncc12
Second: O[C@H]1CO[C@H]2[C@@H]1OC[C@@H]2Oc1ccc(Nc2ccnc(Nc3ccc(O[C@H]4CO[C@H]5[C@@H]4OC[C@@H]5O)c(Cl)c3)n2)cc1Cl
The GI50 of the first is 5.4-fold lower: 0.219 µM for the first, 1.18 µM for the second.

With `O=C(C1CCCCC1)[C@@H]1[C@]2(C(=O)NC3CCCCC32)[C@@H]2CCCN2[C@@]12C(=O)NC1CCC(Cl)CC12` (some centres undefined) the GI50 was 121 µM.

First: CN(C)c1ccc(/C=C\c2cccc[n+]2C)cc1
Second: CN(C)c1ccc2c(c1)Sc1cc(N(C)C)ccc1N2C(=O)c1ccccc1
The TGI of the first is lower: 5.76 µM for the first, greater than 100 µM for the second.

`Cc1ccc(-c2cc(-c3ccc(C)cc3)nc(NCCNc3ccnc4cc(Cl)ccc34)n2)cc1` and `Cc1cc(NCc2cc(Nc3ccnc4cc(Cl)ccc34)ccc2F)nc(N2CCCC2)n1` are within 1.5-fold of each other in TGI: 3.06 µM for the first, 3.07 µM for the second.

`C=CC(=O)Nc1cccc(C)c1Nc1cc(-c2cccnc2Cc2c(C)c(OC)cc(OC)c2C)ncn1` and `COc1ccc(C2CC(c3cc(OC)c(OC)c(OC)c3)=NN2C(C)=O)cc1OCC(=O)Nc1nc2ccc(C(F)(F)F)cc2s1` (centres undefined) are within 1.5-fold of each other in TGI: 24.7 µM for the first, 29.1 µM for the second.

First: CCN=C1C=CC(=C(c2ccc(N)cc2)c2ccc(N(CC)CC)c(C)c2)C=C1
Second: CCCn1cnc2c(c1=N)C(c1ccc(Cl)cc1)c1sc3c(C)cccc3c1O2 (centres undefined)
The TGI of the first is 5.4-fold lower: 0.718 µM for the first, 3.9 µM for the second.

`O=C(c1ccccc1)C(CN1CCOCC1)c1ccccc1` (centres undefined) and `O=C(/C(=C/c1ccccc1)CN1CCCCC1)c1ccccc1` are within 1.5-fold of each other in TGI: 1.59 µM for the first, 1.95 µM for the second.

`CC1=C(CCC(C)N(C)Cc2ccc(OCCCN3CCCC3)cc2)C(C)(C)CCC1` (centres undefined) and `CC(C)(C)c1ccc(OCCCCCCN2CCNCC2)cc1` are within 1.5-fold of each other in TGI: 5.75 µM for the first, 6.78 µM for the second.

Compared with `Cc1ccc(NC(=O)/C=C/c2ccccc2)c(C(N)=O)c1`, `N/C(=N\N=C\c1ccc(-c2ccccc2)cc1)N[N+](=O)[O-]` is higher in TGI: 28.1 µM for the first, greater than 100 µM for the second.

`C=CC(=O)N1CCN(c2ccc3cccc(NC(=O)c4cnc(C)cn4)c3n2)CC1` and `CCN(C(=O)N1CCN(c2cc3c(cc2F)c(=O)c(C(=O)O)cn3C2CC2)CC1)c1nc(-c2ccc(C)cc2)cs1` are within 1.5-fold of each other in TGI: 7.45 µM for the first, 7.4 µM for the second.

`O=c1[nH]c2ccccc2nc1-c1c[nH]c2ccccc12` and `N#C/C(=C\c1c(-c2ccccc2)[nH]c2ccccc12)S(=O)(=O)c1ccccc1` cannot be ordered by TGI: greater than 100 µM for the first, greater than 28.3 µM for the second.

Going from `COC(=O)C(Cc1ccccc1)NC(=O)NC(=O)NC(=O)CI` (centres undefined) to `COc1ccc(-c2cc(-c3ccccc3)nc(SCCCC(=O)NO)n2)cc1`, the TGI falls from 15.1 µM to 4.52 µM (3.3-fold).

Compared with `COc1cccc(NC(=O)c2sc3nc4c(cc3c2N)CN(Cc2ccccc2)CC4)c1`, `CN1CCN(Cc2ccc(NC(=O)c3cncc(C#Cc4cnc(N)c5ccncc45)c3)cc2C(F)(F)F)CC1` is 7.5-fold lower in TGI: 61.4 µM for the first, 8.24 µM for the second.

First: COc1ccc(-c2n[nH]nc2-c2cc(OC)c3c(c2OC)OCO3)cc1
Second: CCC1C(c2cc(OC)c(OC)c(OC)c2)c2cc3c(cc2OC1N1CCCC1)OCO3 (centres undefined)
The TGI of the first is 17-fold lower: 1.49 µM for the first, 25.2 µM for the second.

First: CCCn1c(C)nc2c1C(=O)c1ccccc1C2=O
Second: Cn1c2c(cc(S(=O)(=O)c3ccccc3)c1=O)CCc1c-2cnn1-c1ccc(Cl)cc1
The TGI of the first is 10-fold higher: 56.7 µM for the first, 5.65 µM for the second.

Going from `O=[N+]([O-])c1cccc(-c2nc3sccn3c2-c2ccnc(NCCCNS(=O)(=O)c3cccc(F)c3)n2)c1` to `C/C(=N\Nc1ccc2ccccc2n1)c1ccccn1`, the TGI falls from 6.1 µM to 0.705 µM (8.7-fold).

Going from `Clc1cc(Cl)c(OCC#CI)cc1Cl` to `CCN1CCC(CCOC)(CN2c3ccccc3Sc3ccc(Cl)cc32)C1` (centres undefined), the TGI falls from 7.29 µM to 3.37 µM (2.2-fold).

First: CC(C)CC(CC1=CCC2CC1C2(C)C)C1=C(O)C(C)(C)C(=O)C(C)(C)C1=O (centres undefined)
Second: C=C1CC[C@@H]2[C@](C)(COC(C)=O)[C@@H](O)CC[C@@]2(C)[C@@H]1COc1ccc2ccc(=O)oc2c1
The TGI of the first is lower: 1.33 µM for the first, greater than 100 µM for the second.

`CN(C)CCCN1c2ccccc2CCc2ccc(Cl)cc21` and `CC(CN1CCN(CCOCCO)CC1)CN1c2ccccc2Sc2ccc(Cl)cc21` (centres undefined) are within 1.5-fold of each other in TGI: 3.23 µM for the first, 4.14 µM for the second.

Going from `O=C1c2c(c3c4ccccc4[nH]c3c3ccc4ccccc4c23)C(=O)N1CCN1CCCCC1` to `C=CC(=O)N(C)[C@H]1C[C@H]2OC(C)(C1OC)n1c3ccccc3c3c4c(c5c6ccccc6n2c5c31)C(=O)NC4` (some centres undefined), the TGI falls from 2.49 µM to 0.235 µM (11-fold).

`C[C@]12CC[C@H]3[C@@H](CCC4=CC(=O)CC[C@@H]43)[C@@H]1CC[C@@H]2OC(=O)CCc1ccccc1` and `C[C@]12CCC3[C@@H](CC[C@@H]4c5nonc5CC[C@]34C)C1CCC(=O)N2` (some centres undefined) cannot be ordered by TGI: greater than 100 µM for the first, greater than 100 µM for the second.

Compared with `Cc1cc2c3ccc(C)[n+](C)c3ccc2n1C`, `Cc1cc(N/N=C/c2nc(-c3ccc(Br)cc3)oc2C)c2cc(Cl)ccc2n1` is higher in TGI: 8.5 µM for the first, greater than 100 µM for the second.

`Nc1ncnc2[nH]ncc12` and `O[C@H]1CO[C@H]2[C@@H]1OC[C@@H]2Oc1ccc(Nc2ccnc(Nc3ccc(O[C@H]4CO[C@H]5[C@@H]4OC[C@@H]5O)c(Cl)c3)n2)cc1Cl` are within 1.5-fold of each other in TGI: 2.85 µM for the first, 3.81 µM for the second.

`O=C(C1CCCCC1)[C@@H]1[C@]2(C(=O)NC3CCCCC32)[C@@H]2CCCN2[C@@]12C(=O)NC1CCC(Cl)CC12` (some centres undefined) was tested, and the TGI was 277 µM.

`Cc1ccc(C(=O)Nc2cccc(C(F)(F)F)c2)cc1Nc1nc(-c2cccnc2)nc2c1cnn2C` was tested, and the GI50 was 3.02 µM and 1.78 µM.
With `Cc1ccc(C(=O)Nc2ccc(CN3CCN(C)CC3)c(C(F)(F)F)c2)cc1C#Cc1cnc2cccnn12` the GI50 was 0.461 µM and 1.5 µM.
With `CS(=O)(=O)c1ccc(C(=O)Nc2ccc(Cl)c(-c3ccccn3)c2)c(Cl)c1` the GI50 was 20.8 µM and 2.16 µM.
With `O=S(=O)(NCCNC/C=C/c1ccc(Br)cc1)c1cccc2cnccc12` the GI50 was 3.3 µM and 5.06 µM.

`Cc1ccc(C(=O)Nc2cccc(C(F)(F)F)c2)cc1Nc1nc(-c2cccnc2)nc2c1cnn2C` was tested, and the TGI was 8.4 µM and 4.48 µM.
In the case of `Cc1ccc(C(=O)Nc2ccc(CN3CCN(C)CC3)c(C(F)(F)F)c2)cc1C#Cc1cnc2cccnn12`, the TGI was 1.72 µM and 4.22 µM.
`CS(=O)(=O)c1ccc(C(=O)Nc2ccc(Cl)c(-c3ccccn3)c2)c(Cl)c1` was tested, and the TGI was > 86 µM and 9.69 µM.
In the case of `O=S(=O)(NCCNC/C=C/c1ccc(Br)cc1)c1cccc2cnccc12`, the TGI was 13.8 µM and 18.5 µM.
